In patent US12528818B2, “Compositions and methods for inhibition of RAS” (Leidos Biomedical Research, Inc., priority 2021, dated 2026) one finds IC50 data, which are given here for 44 compounds.

The first assay deals with pERK in NCI-H358 cells. Put plainly: Cell-based pERK HTRF assay (pERK inhibition in H358 cells). Particulars: Homo sapiens, NCI-H358, 0.5 h, pERK inhibition IC50, NCI-H358 cells, 30 min incubation; read-out: PERK in H358 cell. Background: TR-FRET usually uses a lanthanide donor and a delayed reading to cut background.
Regarding `C=CC(=O)N1CC[C@@H]2[C@H]1CN2c1nc(OCC23CCCN2CCC3)nc2c(F)c(-c3ccc(F)c4sc(N)nc34)c(Cl)cc12` [Compound 65], the IC50 was 100 to 1000 nM.

For `C=CC(=O)N1CC[C@@H]2[C@H]1CN2c1nc(OC[C@@H]2C[C@@H](F)CN2C)nc2c(F)c(-c3ccc(F)c4sc(N)nc34)c(Cl)cc12` [Compound 89], the IC50 is < 100 nM.

With `C=CC(=O)N1CC[C@@H](N(C)c2nc(OC[C@@H]3CC(C)(C)CN3C)nc3c(F)c(-c4ccc(F)c5sc(N)nc45)c(C(F)(F)F)cc23)C1` [Compound 265], the IC50 was < 100 nM.

For `C=CC(=O)N1CC(N(C)c2nc(OC[C@@]34CCCN3C[C@H](OC)C4)nc3c(F)c(-c4ccc(F)c5sc(N)nc45)c(C(F)(F)F)cc23)C1` [Compound 201], the IC50 lay within 100 to 1000 nM.

Regarding `C=CC(=O)N1CCC(N(CC)c2nc(OC[C@@H]3C[C@@H](OC)CN3C)nc3c(F)c(-c4ccc(F)c5sc(N)c(C#N)c45)c(C(F)(F)F)cc23)[C@H]1C` (some centres unmarked) [Compound 392], the IC50 is < 100 nM.

With `C=CC(=O)N1CCN(c2nc(OC[C@@H]3CC(F)(F)CN3C)nc3c(F)c(-c4ccc(F)c5sc(N)nc45)c(C(F)(F)F)cc23)CC1` [Compound 131], the IC50 was < 100 nM.

With `C=CC(=O)N1CC[C@@H](N(C)c2nc(OC[C@@]34CCCN3C[C@H](F)C4)nc3c(Cl)c(-c4ccc(F)c5sc(N)nc45)c(C(F)(F)F)cc23)C1` (single isomer, unassigned) [Compound 302], the IC50 was < 100 nM.

As to `C=CC(=O)N1CCN(c2nc(OC[C@]34CCCN3C[C@H](F)C4)nc3c(F)c(-c4ccc(F)c5sc(N)nc45)c(C(F)(F)F)cc23)C[C@H]1C` [Compound 190], the IC50 is < 100 nM.

In the case of `C=CC(=O)N1CCC(N(C)c2nc(OC[C@@H]3CC4(CC4)CN3C)nc3c(F)c(-c4ccc(F)c5sc(N)c(C#N)c45)c(Cl)cc23)[C@H]1C` (some centres unmarked) [Compound 448], the IC50 was 100 to 1000 nM.

`C=CC(=O)N1CC[C@@H](N(CC)c2nc(OC[C@@]34CCCN3C[C@H](F)C4)nc3cc(-c4ccc(F)c5sc(N)c(C#N)c45)c(C#N)cc23)[C@H]1COC` [Compound 439]: the IC50 is 100 to 1000 nM.

Take `C=CC(=O)N1CCC(N(C)c2nc(OC[C@@]34CCCN3C[C@H](F)C4)nc3c(Cl)c(-c4ccc(F)c5sc(N)c(C#N)c45)c(C#N)cc23)[C@H]1C` (some centres unmarked) [Compound 425]: the IC50 was in the range of 100 to 1000 nM.

With `C#CC(=O)N1CC(Nc2nc(OC[C@@H]3CCCN3C)nc3c(F)c(-c4ccc(F)c5sc(N)nc45)c(Cl)cc23)C1` [Compound 81], the IC50 fell in the range of 100 to 1000 nM.

With `CC#CC(=O)N(C)C1CN(c2nc(OCC34CCCN3CCC4)nc3c(F)c(-c4ccc(F)c5sc(N)nc45)c(Cl)cc23)C1` [Compound 172], the IC50 is > 1000 nM.

With `C=CC(=O)N1CC[C@@H](N(C)c2nc(OCC)nc3c(F)c(-c4ccc(F)c5sc(N)c(C#N)c45)ccc23)[C@H]1C` [Compound 463], the IC50 is > 1000 nM.

Take `C=CC(=O)N1C[C@H](C)N(c2nc(OC[C@@]34CCCN3C[C@H](OC)C4)nc3c(F)c(-c4ccc(F)c5sc(N)c(C#N)c45)c(Cl)cc23)C[C@H]1C` [Compound 367]: the IC50 is < 100 nM.

For the compound `C=CC(=O)N1CC[C@@H](N(C)c2nc(OC[C@]34CCCN3C[C@H](OC)C4)nc3c(F)c(-c4ccc(F)c5sc(N)nc45)c(C(F)(F)F)cc23)C1` (atropisomer, axis not shown) [Compound 277], the IC50 is < 100 nM.

As to `C=CC(=O)N1CCC(N(C)c2nc(OC[C@@H]3C[C@@H](OC)CN3C)nc3c(F)c(-c4ccc(F)c5sc(N)c(C#N)c45)ccc23)[C@H]1C` (some centres unmarked) [Compound 430], the IC50 is < 100 nM.

In the case of `C=CC(=O)N1CCN(c2nc(OCC34CCCN3CCC4)nc3c(F)c(-c4ccc(F)c5sc(N)nc45)c(C(C)(F)F)cc23)CC1` [Compound 284], the IC50 is > 1000 nM.

Take `C=CC(=O)N1CCN(c2nc(OC[C@@]34CCCN3C[C@H](F)C4)nc3c(F)c(-c4ccc(F)c5sc(N)c(C#N)c45)c(C(F)(F)F)cc23)C[C@@H]1C` [Compound 329]: the IC50 is < 100 nM.

As for `C=CC(=O)N1CC[C@@H](N(C)c2nc(OC[C@@]34CCCN3C[C@H](F)C4)nc3c(F)c(-c4ccc(F)c5oc(N)nc45)c(C(F)(F)F)cc23)C1` [Compound 275], the IC50 is < 100 nM.

For the compound `C=CC(=O)N1CCC(N(CC)c2nc(OC[C@@]34CCCN3C[C@H](F)C4)nc3c(F)c(-c4ccc(F)c5sc(N)c(C#N)c45)ccc23)[C@H]1COC` (some centres unmarked) [Compound 412], the IC50 is 100 to 1000 nM.

On to `C=CC(=O)N1C[C@H](C)N(c2ncnc3c(F)c(-c4ccc(F)c5sc(N)c(C#N)c45)c(C(F)(F)F)cc23)C[C@H]1C` [Compound 382], for which the IC50 is < 100 nM.

With `C=CC(=O)N1CC[C@@H](N(CC)c2nc(OC[C@@]34CCCN3C[C@H](F)C4)nc3cc(-c4ccc(F)c5sc(N)c(C#N)c45)c(F)cc23)[C@H]1C` [Compound 414], the IC50 was < 100 nM.

As for `C=CC(=O)N1C[C@H](C)N(c2nc(OC[C@@H]3C[C@@H](F)CN3C)nc3c(F)c(-c4ccc(F)c5sc(N)c(C#N)c45)c(C(F)(F)F)cc23)C[C@H]1C` [Compound 406], the IC50 was < 100 nM.

On to `C=CC(=O)N1C[C@@H](F)[C@@H](N(C)c2nc(OC[C@@]34CCCN3C[C@H](F)C4)nc3cc(-c4ccc(F)c5sc(N)c(C#N)c45)c(C(F)(F)F)cc23)C1` [Compound 315, 4-(4-(((3S,4R)-1-acryloyl-4-fluoropyrrolidin-3-yl)(methyl)amino)-2-(((2R,7aS)-2-fluorotetrahydro-1H-pyrrolizin-7a(5H)-yl)methoxy)-6-(trifluoromethyl)quinazolin-7-yl)-2-amino-7-fluorobenzo[b]thiophene-3-carbonitrile], for which the IC50 was < 100 nM.

In the case of `C=CC(=O)N1C[C@@H](F)[C@@H](N(CC)c2nc(OC[C@@]34CCCN3C[C@H](F)C4)nc3c(F)c(-c4ccc(F)c5sc(N)c(C#N)c45)c(C(F)(F)F)cc23)C1` [Compound 362], the IC50 is < 100 nM.

Take `C=CC(=O)N1CCC(N(C)c2nc(OC[C@@H]3CC4(CC4)CN3C)nc3c(F)c(-c4ccc(F)c5sc(N)c(C#N)c45)ccc23)[C@H]1C` (some centres unmarked) [Compound 436]: the IC50 is < 100 nM.

On to `N#CN1CC(Nc2ncnc3c(F)c(-c4ccc(F)c5sc(N)nc45)c(C(F)(F)F)cc23)C1` [Compound 45], for which the IC50 is < 100 nM.

On to `C=CC(=O)N1CCN(c2nc(OCC34CCCN3CCC4)nc3c(F)c(-c4ccc(F)c5sc(N)nc45)c(OC(F)F)cc23)CC1` [Compound 254], for which the IC50 is 100 to 1000 nM.

In the case of `C=CC(=O)N1C[C@@H](F)[C@@H](N(CC)c2nc(OCC34CCCN3CCC4)nc3cc(-c4ccc(F)c5sc(N)c(C#N)c45)c(C(F)(F)F)cc23)C1` [Compound 376], the IC50 was < 100 nM.

On to `C=CC(=O)N1CCC(N(C)c2nc(OC[C@@H]3C[C@@H](OC)CN3C)nc3c(F)c(-c4ccc(F)c5sc(N)c(C#N)c45)c(Cl)cc23)[C@H]1C` (some centres unmarked) [Compound 450], for which the IC50 was < 100 nM.

As for `C=CC(=O)N1CC[C@@H](N(C)c2nc(OC[C@@H]3C[C@@H](F)CN3C3CC3)nc3c(F)c(-c4ccc(F)c5sc(N)nc45)c(C(F)(F)F)cc23)C1` [Compound 273], the IC50 lay in the range of 100 to 1000 nM.

Regarding `C=CC(=O)N1C[C@H](C)N(c2nc(OC[C@@]34CCCN3C[C@H](F)C4)nc3c(F)c(-c4ccc(F)c5sc(N)c(C#N)c45)c(C(F)(F)F)cc23)C[C@H]1C` [Compound 252, 4-(4-((2S,5R)-4-acryloyl-2,5-dimethylpiperazin-1-yl)-8-fluoro-2-(((2R,7aS)-2-fluorotetrahydro-1H-pyrrolizin-7a(5H)-yl)methoxy)-6-(trifluoromethyl)quinazolin-7-yl)-2-amino-7-fluorobenzo[b]thiophene-3-carbonitrile], the IC50 is < 100 nM.

In the case of `C=CC(=O)N1CC[C@@H](N(C)c2nc(OC[C@@H]3CCCN3C)nc3c(F)c(-c4ccc(F)c5sc(N)nc45)c(C(F)(F)F)cc23)C1` [Compound 230], the IC50 was 100 to 1000 nM.

For the compound `C=CC(=O)N1CCN(c2nc(OC[C@@]34CCCN3C[C@H](F)C4)nc3c(F)c(-c4ccc(F)c5sc(N)nc45)c(C(F)(F)F)cc23)CC1` [Compound 194], the IC50 was < 100 nM.

`C=CC(=O)N1CCC(N(C)c2nc(OC[C@@H]3CCCN3CC)nc3c(F)c(-c4ccc(F)c5sc(N)c(C#N)c45)c(C(F)(F)F)cc23)[C@H]1C` (some centres unmarked) [Compound 451]: the IC50 was < 100 nM.

Take `C=CC(=O)N1C[C@H](N(C)c2nc(OC[C@@]34CCCN3C[C@H](F)C4)nc3cc(-c4ccc(F)c5sc(N)nc45)c(C(F)(F)F)cc23)C[C@H]1C` [Compound 309]: the IC50 is < 100 nM.

On to `C=CC(=O)N1C[C@H](C)N(c2nc(OC[C@@]34CCCN3C[C@H](F)C4)nc3cc(-c4ccc(F)c5sc(N)nc45)c(C(F)(F)F)cc23)C[C@H]1C` [Compound 299], for which the IC50 is < 100 nM.

In the case of `C=CC(=O)N1CC(N(C)c2nc(OC[C@@H]3CC(F)(F)CN3C)nc3c(F)c(-c4ccc(F)c5sc(N)nc45)c(C(F)(F)F)cc23)C1` [Compound 181], the IC50 is > 1000 nM.

For the compound `C=CC(=O)N1C[C@@H](F)[C@@H](N(C)c2nc(OC[C@@H]3C[C@@H](OC)CN3C)nc3cc(-c4ccc(F)c5sc(N)nc45)c(C(F)(F)F)cc23)C1` [Compound 350], the IC50 is < 100 nM.

For the compound `C=CC(=O)N1CCC(N(C)c2nc(OC[C@]34CCCN3C[C@H](F)C4)nc3c(F)c(-c4ccc(F)c5sc(N)c(C#N)c45)c(C(F)(F)F)cc23)[C@H]1C` (some centres unmarked) [Compound 477], the IC50 is < 100 nM.

The same assay, now with this note: pERK inhibition IC50, NCI-H358 cells, 30 min incubation; read-out: PERK in H358 cell.
On to `C=CC(=O)N1C[C@H](N(C)c2ncnc3c(F)c(-c4ccc(F)c5sc(N)nc45)c(C(F)(F)F)cc23)C2(CC2)C1` (atropisomer, axis not shown) [Compound 264], for which the IC50 was > 1000 nM.

On to `C=CC(=O)N1C[C@H](C)N(c2nc(OC[C@@]34CCCN3C[C@H](F)C4)nc3c(F)c(-c4ccc(F)c5sc(N)c(C#N)c45)c(C(F)(F)F)cc23)C[C@H]1C` (single isomer, unassigned) [Compound 314], for which the IC50 was 100 to 1000 nM.

As to `C=CC(=O)N1CC[C@@H](N(C)c2nc(OC[C@@]34CCCN3C[C@H](F)C4)nc3c(F)c(-c4ccc(F)c5sc(N)c(C#N)c45)c(C(F)(F)F)cc23)[C@H]1C` (single isomer, unassigned) [Compound 435], the IC50 was > 1000 nM.
